PMC12072223 (CPT: Pharmacometrics & Systems Pharmacology, 2025)
Several values for one entry are separate records, joined by “and”; a condition that tells them apart may be missing. Identical values can stand only once. Like-named read-outs stand apart in the source and are kept apart here.

How the values were obtained:
[1] = PDA plasma and urine levels at baseline in five clinical studies; format: in vivo, human; details: for AUC(0-t) / Cmax / concentration at 0 min / CL renal: human; for AUC(0-t) / Cmax / concentration at 0 min: plasma; for AUC(0-t): AUC0-24h; for concentration at 0 min: predose (0 min) plasma concentration; for CL renal: CLR
OAT1 = biological target: T1, OAT1 (Homo sapiens, UniProt Q4U2R8); assay: PDA uptake in OAT1-transfected HEK293 cells and RAF scaling; format: in vitro ADME
T1 sequence (Q4U2R8 1-563): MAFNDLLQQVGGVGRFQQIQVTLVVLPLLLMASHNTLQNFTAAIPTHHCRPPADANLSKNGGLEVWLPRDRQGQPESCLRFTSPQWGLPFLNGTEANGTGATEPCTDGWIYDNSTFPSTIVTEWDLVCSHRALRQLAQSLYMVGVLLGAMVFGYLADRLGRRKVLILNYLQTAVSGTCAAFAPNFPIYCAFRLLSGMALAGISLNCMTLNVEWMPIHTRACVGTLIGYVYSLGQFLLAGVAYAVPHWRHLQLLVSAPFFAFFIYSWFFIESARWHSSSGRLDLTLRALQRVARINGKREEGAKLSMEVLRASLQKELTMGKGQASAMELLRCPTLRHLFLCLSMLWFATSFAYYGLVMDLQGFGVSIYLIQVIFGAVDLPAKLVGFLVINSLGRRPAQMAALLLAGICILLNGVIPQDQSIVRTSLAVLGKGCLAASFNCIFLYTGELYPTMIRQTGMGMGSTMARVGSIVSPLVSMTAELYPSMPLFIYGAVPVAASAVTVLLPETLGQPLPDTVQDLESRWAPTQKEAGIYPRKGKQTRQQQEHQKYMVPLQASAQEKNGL

OAT2 = biological target: T2, OAT2 (Homo sapiens, UniProt Q9Y694); assay: PDA uptake in OAT2-transfected HEK293 cells and RAF scaling; format: in vitro ADME
T2 sequence (Q9Y694 1-546 isoform Q9Y694-2): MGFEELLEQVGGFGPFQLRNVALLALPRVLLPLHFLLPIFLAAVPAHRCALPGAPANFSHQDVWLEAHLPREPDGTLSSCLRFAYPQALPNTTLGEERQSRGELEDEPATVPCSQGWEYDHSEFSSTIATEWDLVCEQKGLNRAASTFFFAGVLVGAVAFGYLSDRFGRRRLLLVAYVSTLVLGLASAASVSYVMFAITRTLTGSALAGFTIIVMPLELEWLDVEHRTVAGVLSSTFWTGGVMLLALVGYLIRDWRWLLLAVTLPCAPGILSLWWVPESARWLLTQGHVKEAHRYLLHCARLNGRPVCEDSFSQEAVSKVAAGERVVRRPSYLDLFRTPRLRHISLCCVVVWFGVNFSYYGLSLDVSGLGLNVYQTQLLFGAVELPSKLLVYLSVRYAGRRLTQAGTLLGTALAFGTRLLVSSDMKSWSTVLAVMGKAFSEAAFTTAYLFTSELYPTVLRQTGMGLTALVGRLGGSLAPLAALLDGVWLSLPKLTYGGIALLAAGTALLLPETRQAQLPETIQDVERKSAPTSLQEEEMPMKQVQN

OAT3 [2] = biological target: T3, OAT3 (Homo sapiens, UniProt Q8TCC7); assay: PDA uptake in OAT3-transfected HEK293 cells and RAF scaling; format: in vitro ADME
T3 sequence (Q8TCC7 1-542): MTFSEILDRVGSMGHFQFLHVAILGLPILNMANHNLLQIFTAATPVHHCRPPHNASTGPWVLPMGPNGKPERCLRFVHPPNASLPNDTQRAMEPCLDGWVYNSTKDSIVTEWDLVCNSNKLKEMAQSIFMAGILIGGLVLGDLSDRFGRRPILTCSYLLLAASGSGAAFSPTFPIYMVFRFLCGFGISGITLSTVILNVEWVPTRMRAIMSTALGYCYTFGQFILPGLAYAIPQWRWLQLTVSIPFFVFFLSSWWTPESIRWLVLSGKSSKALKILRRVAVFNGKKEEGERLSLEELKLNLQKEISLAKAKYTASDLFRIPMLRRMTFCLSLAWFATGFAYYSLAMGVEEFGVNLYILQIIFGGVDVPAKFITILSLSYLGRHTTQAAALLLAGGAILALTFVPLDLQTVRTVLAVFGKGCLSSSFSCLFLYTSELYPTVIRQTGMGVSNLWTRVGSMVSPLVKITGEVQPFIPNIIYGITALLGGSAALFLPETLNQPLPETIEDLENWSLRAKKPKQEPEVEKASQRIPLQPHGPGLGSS

[3] = parameters: species or system human; details: PDA; in vitro-in vivo scaling
OAT1/3 [4] = details: PDA, cited from earlier work
[5] = PDA, cited from earlier work
OAT1/3 [6] = assay: Effect of OAT inhibitors on PDA pharmacokinetics in clinical DDI studies; details: for AUC ratio / Cmax ratio: PDA; for AUC(0-t) / Cmax: both, human, in vivo
OAT3 [7] = biological target: T3, OAT3; assay: Inhibition of OAT3-mediated uptake in transfected HEK293 cells; format: in vitro ADME; details: from in vitro IC50 values
[8] = both, PDA plasma, Study 1 baseline (no inhibitor), n=12
[9] = both, PDA plasma, Study 2 baseline, n=12
[10] = both, PDA plasma, Study 3 baseline, n=12
[11] = male, PDA plasma, Study 5 baseline, males, n=23
[12] = physiological scalars and relative activity factors
[13] = Shen 2019 Study 1, presence/absence of probenecid
[14] = Shen 2019 Study 1, probenecid 1000 mg single oral dose
[15] = Shen 2019 Study 2, presence/absence of probenecid
[16] = Shen 2019 Study 2, probenecid 1000 mg single oral dose
[17] = Willemin 2021, presence/absence of probenecid
[18] = Willemin 2021, probenecid 500 mg multiple oral doses
[19] = presence/absence of probenecid 1000 mg BID, Study 1
[20] = presence/absence of ritlecitinib 200 mg QD, Study 2

Cc1ncc(CO)c(C(=O)O)c1O [PDA, Pyridoxic acid]
intra-individual variability in plasma concentration across 0-24 h ([1]; PDA): 16 % CV | amount excreted unchanged in urine lower in White males than Japanese males ([1]; PDA, Studies 4 and 5): 35% | variability in predose plasma concentrations and AUC0-24h ([1]; PDA, across the five studies): < 6 fold | inter-individual (overall) variability in plasma concentration ([1]; PDA, all five studies, n = 71): ~ 40% and < 40% | overall variability in AUC0-24h ([1]; PDA, five studies): 38% | overall variability in predose plasma concentration ([1]; PDA, five studies): 44% | AUC0-24h / baseline plasma level higher in White males than Japanese males ([1]; PDA, p < 0.05): 38% | CLR lower in White males than Japanese males ([1]; PDA, p < 0.05): ~ 54% | amount excreted in urine higher in Japanese males than White males ([1]; PDA, p < 0.05): 1.5 fold | renal clearance higher in Japanese males than White males ([1]; PDA, p < 0.05): 2.2 fold and ~ 2.2 fold | average AUC0-24h and Cmax lower in Hispanic/Latino compared to Whites ([1]; PDA, p > 0.05): ~ 30% | AUC0-24h higher in Study 5 compared to Study 4 ([1]; PDA, ~70% White males vs all Japanese males): 35% | AUC(0-t) [1, 8]: 86.7 ± 47.4 ng·h/mL | AUC(0-t) [1, 9]: 70.5 ± 24.3 ng·h/mL | AUC(0-t) [1, 10]: 64.2 ± 21.2 ng·h/mL | Cmax [1, 8]: 4.6 ± 2.5 ng/mL | Cmax [1, 9]: 3.8 ± 1.3 ng/mL | Cmax [1, 10]: 3.5 ± 1.1 ng/mL | concentration at 0 min ([1]; both, mean, PDA, across the five studies): 3.3 ng/mL | concentration at 0 min ([1]; both, range, PDA, across the five studies): 1.6 to 9.2 ng/mL | AUC(0-t) ([1]; male, PDA plasma baseline, males only, Japanese (13)): 56.5 ± 15.2 ng·h/mL | AUC(0-t) ([1]; male, PDA plasma baseline, males only, White (37)): 78.2 ± 28.2 ng·h/mL | AUC(0-t) [1, 11]: 74.6 ± 15.7 ng·h/mL | Cmax [1, 11]: 4.6 ± 1.9 ng/mL | CL renal ([1]; male, urine and plasma, PDA, Study 5 baseline): 230 ± 54.2 mL/min | CL renal ([1]; male, urine, PDA, Japanese males (13)): 546 ± 122 mL/min | CL renal ([1]; male, urine, PDA, White males (16)): 250 ± 48.2 mL/min | ft (fraction transported) OAT1 (OAT1; PDA renal secretion): < 0.1 | contribution of OAT1-specific active secretion to total CLR (OAT1; PDA, in vitro-in vivo scaling): 7% | active uptake clearance via OAT1, scaled (OAT1; [12]): 3.31 mL/min/kg | ft (fraction transported) OAT2 (OAT2; PDA renal secretion): < 0.1 | contribution of OAT2-specific active secretion to total CLR (OAT2; PDA, in vitro-in vivo scaling): 6% | active uptake clearance via OAT2, scaled (OAT2; [12]): 0.35 mL/min/kg | ft (fraction transported) OAT3 (OAT3 [2]; PDA renal secretion): 0.82 | active uptake clearance via OAT3, scaled (OAT3 [2]; [12]): 7.55 mL/min/kg | contribution of glomerular filtration to total CLR [3]: 5% and ~ 5% | inter-individual variability in predose plasma concentrations (OAT1/3 [4]; Indian population): 33 fold and ~ 33 fold | AUC0-24h (OAT1/3 [4]; Shen 2019 Study 1, baseline): 46 ± 53.7 ng·h/mL | CLR (OAT1/3 [4]; Shen 2019 Study 1, baseline): 226.7 ± 268.3 mL/min | Cmax (OAT1/3 [4]; Shen 2019 Study 1, baseline): 3.3 ± 4.6 ng/mL | AUC ratio (OAT1/3 [4]; [13]): 3.1 | CLR ratio (OAT1/3 [4]; [13]): 0.37 | Cmax ratio (OAT1/3 [4]; [13]): 3.1 | AUC0-24h (OAT1/3 [4]; [14]): 116 ± 151 ng·h/mL | CLR (OAT1/3 [4]; [14]): 65 ± 55 mL/min | Cmax (OAT1/3 [4]; [14]): 9.3 ± 11.5 ng/mL | AUC0-24h (OAT1/3 [4]; Shen 2019 Study 2, baseline): 57.9 ± 75.7 ng·h/mL | CLR (OAT1/3 [4]; Shen 2019 Study 2, baseline): 221.7 ± 221.7 mL/min | Cmax (OAT1/3 [4]; Shen 2019 Study 2, baseline): 3.6 ± 4.5 ng/mL | AUC ratio (OAT1/3 [4]; [15]): 3.2 | CLR ratio (OAT1/3 [4]; [15]): 0.4 | Cmax ratio (OAT1/3 [4]; [15]): 3.4 | AUC0-24h (OAT1/3 [4]; [16]): 152 ± 174 ng·h/mL | CLR (OAT1/3 [4]; [16]): 67.6 ± 41.2 mL/min | Cmax (OAT1/3 [4]; [16]): 10.1 ± 10.2 ng/mL | AUC0-24h (OAT1/3 [4]; Willemin 2021, baseline): 71.8 ± 21.3 ng·h/mL | CLR (OAT1/3 [4]; Willemin 2021, baseline): 328.3 ± 203.3 mL/min | Cmax (OAT1/3 [4]; Willemin 2021, baseline): 3.6 ± 0.8 ng/mL | AUC ratio (OAT1/3 [4]; [17]): 3.7 | CLR ratio (OAT1/3 [4]; [17]): 0.17 | Cmax ratio (OAT1/3 [4]; [17]): 3.7 | AUC0-24h (OAT1/3 [4]; [18]): 271 ± 93 ng·h/mL | CLR (OAT1/3 [4]; [18]): 53.3 ± 25 mL/min | Cmax (OAT1/3 [4]; [18]): 13.7 ± 4.1 ng/mL | fu,plasma [5]: 0.08–0.1 | fu,plasma ([5]; ref 13 (supplement ref 7)): 0.092 | AUC ratio (OAT1/3 [6]; [19]): 3.2 | Cmax ratio (OAT1/3 [6]; [19]): 3 | AUC ratio (OAT1/3 [6]; [20]): 1.1 | Cmax ratio (OAT1/3 [6]; [20]): 1.1 | AUC ratio (OAT1/3 [6]; presence/absence of tafamidis 61 mg, Study 3): 1.2 | AUC(0-t) (OAT1/3 [6]; 200 mg): 72.8 ± 22.6 ng·h/mL | Cmax (OAT1/3 [6]; 200 mg): 3.9 ± 1 ng/mL | AUC(0-t) (OAT1/3 [6]; 1000 mg): 235 ± 76 ng·h/mL | Cmax (OAT1/3 [6]; 1000 mg): 11.9 ± 3.4 ng/mL

CCCN(CCC)S(=O)(=O)c1ccc(C(=O)O)cc1 [Probenecid]
potency as inhibitor for OAT3 versus OAT1 (OAT3 [7]): 5 fold

C=CC(=O)N1C[C@H](Nc2ncnc3[nH]ccc23)CC[C@@H]1C [Ritlecitinib]
change in PDA plasma concentration in the clinic (OAT1/3 [6]; ritlecitinib): no‐change | change in the AUC0-24h and Cmax of PDA (OAT1/3 [6]; ritlecitinib administration, Study 2): no significant change
